Results from patent publication US4361570A (Istituto Luso Farmaco D'Italia S.p.A., priority 1980, dated 1982).
Read-outs that look alike come from different tables or passages of the source.

Assays:
[1] = system: maximal aerobic capacity; blood lactate; test: Maximal aerobic capacity and blood lactate at work loads in trained non-athletic individuals
[2] = system: homogenized liver and brain; settings: in vitro, Warburg apparatus, French Pat. No. 6453 M; cited from earlier work
[3] = 920 mg/kg/i.m., dog
[4] = system: lacticacidaemia; settings: for lactate level: control animals 5.1±0.59 mM/l
Method: The resulting lactate levels are 2.9±0.8 mM/l with modality "A" and 1.37±0.01 mM/l with modality "B", respectively.
The control animals show a lacticacidaemia level of 5.1±0.59 mM/l.

[5] = system: lacticacidaemia; settings: for lacticacidaemia, basal / lacticacidaemia, after 15 minutes / lacticacidaemia, after 10 minutes / lacticacidaemia, immediately after stress: 2300 mg in 250 ml venous infusion
Method: All the patients are being treated with insulin and are in a metabolic compensation.
The trials are performed on double-blind conditions. Each patient is subjected to an isometric stress test at 50% of its maximum ability for one minute.
The samples for measuring the lacticacidaemia are taken from the same arm performing the muscular stress.

[6] = system: blood lactic acid
[7] = rats
[8] = system: hyperlacticacidaemia; test: Lacticacidaemia in cyrrhotic patients having hyperlacticacidaemia (double blind); settings: venous 2300 mg in 250 ml, 25 cyrrhotic patients
[9] = pregnant rat
[10] = Rat
[11] = Rabbit, i.v.
[12] = pregnant rabbit
[13] = 400 mg/kg/os, rats, six months
[14] = Mouse
[15] = system: lacticacidaemia; settings: known effect of metformin; cited from earlier work

## Cc1ncc(CO)c(CO)c1O.O=C(O)CCC(=O)C(=O)O [PAK]
[1]; 30 mg/kg
  effect on half time (t 1/2) of La disappearance from blood during recovery: unaffected
[1]; 30 mg/kg of body weight, p<0.005
  increase of maximal aerobic capacity (VO2 max): 6%
[1]; 30 mg/kg, onset and offset of a rectangular work load
  kinetics of the VO2 on-and-off responses: not affected
[1]; 30 mg/kg, supermaximal running work load lasting 60 seconds, p<0.05
  ΔLab, peak blood lactate concentration vs control group: -1.1 mmol·1^-1
[1]; 30 mg/kg, supermaximal running work load lasting 132±4 seconds, p<0.01
  ΔLab, peak blood lactate concentration vs control group: < 2.7 mmol·1^-1
[2]
  oxygen consumption vs α-ketoglutaric acid or pyridoxine alone: markedly higher
[3]
  Systemic tolerability: well tolerated
[4]; modality "A" and modality "B", with metformin
  decrease of lacticacidaemia: notable decrease of lacticacidaemia
[4]; modality "A": PAK 25 mg/h venous infusion contemporaneously with metformin (300 mg/i.d.)
  lactate level: 2.9±0.8 mM/l
[4]; modality "B": PAK 25 mg/h venous infusion three hours after metformin (300 mg/i.d.)
  lactate level: 1.37±0.01 mM/l
[5]; analysis of the variance
  duration of effect: protracted in time
  reduction of lacticacidaemia after stress: faster with PAK
[5]; analysis of the variance, p<0.01
  increase of lacticacidaemia by stress with respect to physiological solution: lower with respect to physiological solution
[5]; sequence (a) physiological solution/PAK, physiological solution 0.88 ± 0.19
  lacticacidaemia, basal: 0.94 ± 0.20
[5]; sequence (a) physiological solution/PAK, physiological solution 1.54 ± 0.30
  lacticacidaemia, after 15 minutes: 1.18 ± 0.30
[5]; sequence (a) physiological solution/PAK, physiological solution 1.73 ± 0.35
  lacticacidaemia, after 10 minutes: 1.60 ± 0.30
[5]; sequence (a) physiological solution/PAK, physiological solution 3.12 ± 0.46
  lacticacidaemia, immediately after stress: 2.62 ± 0.38
[5]; sequence (b) PAK/physiological solution, physiological solution 0.93 ± 0.19
  lacticacidaemia, basal: 0.88 ± 0.16
[5]; sequence (b) PAK/physiological solution, physiological solution 1.25 ± 0.40
  lacticacidaemia, after 15 minutes: 1.11 ± 0.29
[5]; sequence (b) PAK/physiological solution, physiological solution 1.43 ± 0.44
  lacticacidaemia, after 10 minutes: 1.30 ± 0.33
[5]; sequence (b) PAK/physiological solution, physiological solution 2.08 ± 0.49
  lacticacidaemia, immediately after stress: 2.03 ± 0.47
[6]; 2 g/100 kg of weight/day for 15 days, 5 trotters, trot
  decrease in the formation of blood lactic acid: significant decrease
[6]; 2 g/100 kg/day for 15 days, before treatment 6.04 mg/100 ml
  basal lacticacidaemia after treatment: 3.30 mg/100 ml
[6]; 2 g/100 kg/day for 15 days, before treatment 29.41 mg/100 ml
  lacticacidaemia immediately after the stress, after treatment: 15.94 mg/100 ml
[7]; 46 mg/kg/i.v.
  Systemic tolerability: well tolerated
[7]; 460 mg/kg/i.m.
  Systemic tolerability: well tolerated
[8]
  further increase of hyperlacticacidaemia: prevented its further increase
[8]; p<0.01
  reduction of hyperlacticacidaemia vs basal values and controls: statistically significant (p<0.01) reduction
[9]; 46 mg/kg/i.m.
  Activity on gestation: does not cause any noxious effect in the pregnant female, on the gestation and on the embryo-fetal development
[9]; oral 1300 mg/kg
  Activity on gestation: does not cause any noxious effect in the pregnant female, on the gestation and on the embryo-fetal development
[10]; i.m.
  LD50: 2329 mg/kg
[10]; i.p.
  LD50: 1704 mg/kg
[10]; i.v.
  LD50: 588 mg/kg
[10]; os
  LD50: 4800 mg/kg
[11]
  LD50: 1050 mg/kg
[12]; 46 mg/kg/i.m.
  Activity on gestation: does not cause any noxious effect in the pregnant female, on the gestation and on the embryo-fetal development
[12]; oral 1300 mg/kg
  Activity on gestation: does not cause any noxious effect in the pregnant female, on the gestation and on the embryo-fetal development
[13]
  Chronic toxicity: does not cause any collateral nor toxic effect in the various organs
[14]; i.m.
  LD50: 2472 mg/kg
[14]; i.p.
  LD50: 1590 mg/kg
[14]; i.v.
  LD50: 496 mg/kg
[14]; os
  LD50: 5600 mg/kg

## CN(C)C(=N)N=C(N)N [metformin]
[15]
  lacticacidosis in rat: causes lacticacidosis
